Source: PubChem BioAssay (NCI)
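Grown in 96-well plates, cells were treated for 48 hours with each compound at five concentrations. Insufficient inhibition: endpoint recorded as highest concentration tested. The concentration for 50% growth inhibition is given as GI50. TGI: total growth inhibition.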

What was measured:
Assay in all cases: DTP human tumour cell line panel, 48 h
[1] = system: A498 renal
[2] = system: OVCAR-3 ovarian
[3] = system: SW-620 colon
[4] = system: DU-145 prostate
[5] = system: MDA-MB-231 breast
[6] = system: U251 CNS
[7] = system: ACHN renal
[8] = system: NCI-H460 lung
[9] = system: A549 NSCLC
[10] = system: SK-MEL-5 melanoma
[11] = system: NCI-H522 lung
[12] = system: HOP-92 NSCLC
[13] = system: HT29 colon
[14] = system: SN12C renal
[15] = system: UACC-62 melanoma
[16] = system: MOLT-4 leukemia
[17] = system: COLO 205 colon
[18] = system: BT-549 breast
[19] = system: LOX IMVI melanoma
[20] = system: HS 578T breast
[21] = system: SNB-19 CNS
[22] = system: SF-295 CNS
[23] = system: CCRF-CEM leukemia
[24] = system: NCI/ADR-RES ovarian
[25] = system: SF-539 CNS
[26] = system: RPMI-8226 leukemia
[27] = system: UACC-257 melanoma
[28] = system: NCI-H23 lung
[29] = system: SNB-75 CNS
[30] = system: OVCAR-5 ovarian
[31] = system: TK-10 renal
[32] = system: OVCAR-8 ovarian
[33] = system: MCF7 breast
[34] = system: K-562 leukemia
[35] = system: RXF 393 renal
[36] = system: HCT-116 colon
[37] = system: PC-3 prostate
[38] = system: EKVX NSCLC
[39] = system: M14 melanoma
[40] = system: SK-MEL-2 melanoma
[41] = system: SF-268 CNS
[42] = system: KM12 colon
[43] = system: HOP-62 NSCLC
[44] = system: SR leukemia
[45] = system: UO-31 renal
[46] = system: MDA-MB-435
[47] = system: OVCAR-4 ovarian
[48] = system: IGROV1 ovarian
[49] = system: CAKI-1 renal
[50] = system: SK-MEL-28 melanoma
[51] = system: 786-0 renal
[52] = system: NCI-H226 lung
[53] = system: MALME-3M melanoma
[54] = system: T-47D breast
[55] = system: HCT-15 colon

`COc1ccc(-c2cc(-c3ccc(O)cc3)nc3n[nH]c(N)c23)cc1` gave a GI50 [1] of 16.8 µM, a TGI [1] of 36.6 µM and a GI50 [2] of 13.5 µM. The TGI [2] was 31.7 µM, the GI50 [3] was 15.6 µM and the TGI [3] was 38.1 µM. It also gave a GI50 [4] of 15.3 µM, a TGI [4] of 36.5 µM and a GI50 [5] of 14.9 µM. The TGI [5] was 50.3 µM, the GI50 [6] was 18.6 µM and the TGI [6] was 46.7 µM. It also gave a GI50 [7] of 18.2 µM, a TGI [7] of 87.9 µM and a GI50 [8] of 21.6 µM. For the same compound, the TGI [8] was 58.2 µM, the GI50 [9] was 26.8 µM and the TGI [9] was greater than 100 µM. The GI50 [10] was 15.1 µM, the TGI [10] was 28.8 µM and the GI50 [11] was 14.5 µM. It also gave a TGI [11] of 33.6 µM, a GI50 [12] of 11.9 µM and a TGI [12] of 28.7 µM. It also gave a GI50 [13] of 22.6 µM, a TGI [13] greater than 100 µM and a GI50 [14] of 19.2 µM. For the same compound, the TGI [14] was 36.5 µM, the GI50 [15] was 17.2 µM and the TGI [15] was 34.5 µM. It also gave a GI50 [16] of 26.9 µM, a TGI [16] greater than 100 µM and a GI50 [17] of 14.6 µM. For the same compound, the TGI [17] was 32.4 µM, the GI50 [18] was 15.5 µM and the TGI [18] was 32.6 µM. For the same compound, the GI50 [19] was 17 µM, the TGI [19] was 36.4 µM and the GI50 [20] was 19.6 µM. The TGI [20] was 43.3 µM, the GI50 [21] was 33.3 µM and the TGI [21] was greater than 100 µM. For the same compound, the GI50 [22] was 18.5 µM, the TGI [22] was 51.9 µM and the GI50 [23] was 21.6 µM. For the same compound, the TGI [23] was 81.8 µM, the GI50 [24] was 23.1 µM and the TGI [24] was 51.9 µM. For the same compound, the GI50 [25] was 14.7 µM, the TGI [25] was 28.6 µM and the GI50 [26] was 21.1 µM. It also gave a TGI [26] of 66.8 µM, a GI50 [27] of 21.8 µM and a TGI [27] of 56.9 µM. For the same compound, the GI50 [28] was 26.5 µM, the TGI [28] was 68.3 µM and the GI50 [29] was 31.7 µM. It also gave a TGI [29] greater than 100 µM, a GI50 [30] of 15.1 µM and a TGI [30] of 48.2 µM. It also gave a GI50 [31] of 29.8 µM, a TGI [31] greater than 100 µM and a GI50 [32] of 26.1 µM. The TGI [32] was 91.6 µM, the GI50 [33] was 16.7 µM and the TGI [33] was 56.8 µM. It also gave a GI50 [34] of 35.3 µM, a TGI [34] greater than 100 µM and a GI50 [35] of 29 µM. For the same compound, the TGI [35] was 92.5 µM, the GI50 [36] was 17.4 µM and the TGI [36] was 37.3 µM. The GI50 [37] was 29.1 µM, the TGI [37] was greater than 100 µM and the GI50 [38] was 15.3 µM. For the same compound, the TGI [38] was 52.3 µM, the GI50 [39] was 21.3 µM and the TGI [39] was 43 µM. The GI50 [40] was 16.4 µM, the TGI [40] was 35.1 µM and the GI50 [41] was 19.6 µM. The TGI [41] was 56.2 µM, the GI50 [42] was 16.3 µM and the TGI [42] was 40.7 µM. It also gave a GI50 [43] of 21.9 µM, a TGI [43] of 53.9 µM and a GI50 [44] of 24.1 µM. The TGI [44] was greater than 100 µM, the GI50 [45] was 10.4 µM and the TGI [45] was 28.2 µM. For the same compound, the GI50 [46] was 22 µM, the TGI [46] was 47.4 µM and the GI50 [47] was 43.3 µM. The TGI [47] was greater than 100 µM, the GI50 [48] was 17 µM and the TGI [48] was 52.2 µM. The GI50 [49] was 20.2 µM, the TGI [49] was 78.3 µM and the GI50 [50] was 33.6 µM. For the same compound, the TGI [50] was greater than 100 µM, the GI50 [51] was 26 µM and the TGI [51] was 74.3 µM. For the same compound, the GI50 [52] was 17.9 µM, the TGI [52] was 49.5 µM and the GI50 [53] was 21 µM. It also gave a TGI [53] of 44 µM, a GI50 [54] of 18 µM and a TGI [54] of 83.5 µM. It also gave a GI50 [55] of 25.9 µM and a TGI [55] of 95 µM.
